{
  "source": "patent US4902685A",
  "about": "“2-amino-3-cyano-bicyclic pyridines/pyrazines as inhibitors of interleukin 1” (American Home Products Corporation, priority 1988, dated 1990)",
  "tested_on": "IL 1-induced release of neutral protease from rabbit articular chondrocytes",
  "experiment": "inhibition of IL 1-induced release of neutral protease from rabbit articular chondrocytes (azocoll assay)",
  "assay_type": "cell-based",
  "details": "Oryctolagus cuniculus, Chondrocyte, human IL 1, 24 h, relative to vehicle-treated chondrocytes, read-out: % Inhibition (I.S.D.)",
  "description": "The ability of the compounds of the inventions to inhibit interleukin 1 is measured by the ability of the test compounds to inhibit the IL 1-induced release of neutral protease from rabbit articular chondrocytes.\nThis assay is carried out as follows:\nIsolation of rabbit chondrocytes:\nMale New Zealand White rabbits are anesthetized with 50 mg/kg of ketamine (i.m.) and killed by an intracardiac injection of 3 mls. of Nembutal. The knee joints of both legs are resected and the articular surfaces are exposed. Cartilate slices are obtained using a scalpel and are placed in a tissue culture dish (100 mm diameter) containing 10 mls of Hank's balanced salt solution (HBSS). The chrondrocytes within the cartilage slices are then liberated by a series of enzyme digestions. The slices are incubated for 10 min. at 37° C. in 0.05% hyaluronidase (Sigma H-3884), rinsed with HBSS and incubated with 0.2% trypsin (Sigma T-2395)for 10 min. at 37° C. The slices are rinsed again and incubated for 10 mins. at 37° C. with 1.2% collagenase (Sigma C-5138). The slices are then rinsed again with HBSS and resuspended in 10 ml of Ham's F-12 medium containing 10% fetal bovine calf serum (FCS) and 0.2% collagenase and incubated overnight at 37° C. in a 5% CO2 incubator. The next day, the medium containing the digested cartilage fragments and liberated chondrocytes is transferred to a 15 ml centrifuge tube and the cells are collected by centrifugation and washed twice and resuspended in Ham's F-12 medium. The cells are then placed into 24-well tissue culture plates (2×10^5 cells/well) and incubated at 37° C. until confluent (usually 4-6 days).\nStimulation of chondrocytes and drug treatment:\nThe confluent chondrocytes are rinsed twice with serum-free Ham's F-12 medium and 1 ml is added to each well. Fifty μl of purified human IL 1 (100 Units/ml; Genzyme Corporation, Boston, MA) is then added to stimulate these cells to secrete neutral protease. To measure drug effects, the cells are treated with test compound 10 min. prior to addition of IL 1. The standard screening dose is 10 μM. Twenty-four hours after IL 1 stimulation, supernatant fluids are collected and assayed for neutral protease activity.\nThe neutral protease activity of chrondrocyte supernatant fluids is determined by their ability to degrade an insoluble protease substrate, azocoll (Sigma). Supernatants are treated for 10 min. at room temperature with 350 μM p-aminophenylmercuric acetate to activate the latent enzyme. Three hundred μl of supernatant is then mixed with 500 μl of a 20 mg/ml suspension of azocoll and incubated at 37° C. for 18-24 hrs. with gentle rocking. The mixtures are centrifuged and the amount of substrate hydrolyzed is determined by measuring the absorbance of the supernatant at 520 nm.\nDrug effects are calculated as the % change in enzyme activity (absorbance)by supernatants from drug-treated chrondrocytes relative to enzyme activity of supernatants from vehicle-treated chondrocytes as follows: [formula]",
  "data": [
    {"smiles": "N#Cc1ccc(N2CCc3nc(N)c(C#N)cc3C2)cc1", "note": "[Example 1, 2-Amino-6-(4-cyanophenyl)-5,6,7,8-tetrahydro-1,6-naphthyridine-3-carbonitrile]", "values": [
      {"measurement": "inhibition at 10 µM", "result": 18, "unit": "%"}
    ]},
    {"smiles": "N#Cc1ccc(N2CCc3nc(N)c(C#N)nc3C2)cc1", "note": "[Example 2, 2-Amino-6-(4-cyanophenyl)-5,6,7,8-tetrahydropyrido[3,4-b]pyrazine-3-carbonitrile]", "values": [
      {"measurement": "inhibition at 10 µM", "result": 37, "unit": "%"}
    ]},
    {"smiles": "CS(=O)(=O)c1ccc(N2CCc3nc(N)c(C#N)cc3C2)cc1", "note": "[Example 3, 2-Amino-5,6,7,8-tetrahydro-6-[4-(methylsulfonyl)phenyl]-1,6-naphthyridine-3-carbonitrile]", "values": [
      {"measurement": "inhibition at 10 µM", "result": 59, "unit": "%"}
    ]},
    {"smiles": "N#Cc1nc2c(nc1N)CCCC2", "note": "[Example 4, 2-Amino-5,6,7,8-tetrahydro-3-quinoxalinecarbonitrile]", "values": [
      {"measurement": "inhibition at 10 µM", "result": 41, "unit": "%"}
    ]},
    {"smiles": "N#Cc1cc2c(nc1N)CCCC2", "note": "[Example 5, 2-Amino-5,6,7,8-tetrahydro-3-quinolinecarbonitrile]", "values": [
      {"measurement": "inhibition at 1 µM", "setting": "dose 1 μM", "result": 60, "unit": "%"},
      {"measurement": "inhibition at 10 µM", "result": 59, "unit": "%"}
    ]}
  ]
}
